# Reference: patent publication US9506926B2, “Molecular predictors of therapeutic response to specific anti-cancer agents” (The Regents of the University of California, priority 2011, dated 2016)
# Entries after “also recorded” stand apart in the source; their conditions may differ.
# System: breast cancer cell lines
# Experiment: Cell growth inhibition assay (Cell Titer Glo, 72 h drug exposure, GI50) across a breast cancer cell line panel, with subtype, copy number and growth rate association analysis
# Assay type: cell-based, human
# Conditions: for Subtype specificity: Table 1, most sensitive cell line subtype, q<0.10 deemed significant; for Association of 17q12 (ERBB2) amplification with compound response / Association of 20q13 (STK15/AURKA) amplification with compound response: high amplification vs. low or no amplification, t-test; for Subtype-preferential activity in breast cancer cell lines (in words): running text and figure legends, response as −log10(GI50); for Molecular Subtype in which the compound shows Preferential Activity: Table 7 summary; for Response of the cell line panel as a whole: compounds excluded from further analysis; for Association of response with growth rate (doubling time): 2-way ANCOVA of cell line class and growth rate
SMILES,Subtype specificity,Subtype-preferential activity in breast cancer cell lines (in words),other results
CN(C)C/C=C/C(=O)Nc1cc2c(Nc3ccc(F)c(Cl)c3)ncnc2cc1O[C@H]1CCOC1 [BIBW 2992],ERBB2AMP,–,Association of 17q12 (ERBB2) amplification with compound response: associated with sensitivity
Cc1cc(Nc2cc(N3CCN(C)CC3)nc(Sc3ccc(NC(=O)C4CC4)cc3)n2)n[nH]1 [VX-680],not ERBB2AMP,–,–
C=CCNC1=C2C[C@@H](C)C[C@H](OC)[C@H](O)[C@@H](C)/C=C(\C)[C@H](OC(N)=O)[C@@H](OC)/C=C\C=C(/C)C(=O)NC(=CC1=O)C2=O [17-AAG],ERBB2AMP,–,Association of 17q12 (ERBB2) amplification with compound response: associated with sensitivity
N.N.[Cl][Pt][Cl] [Cisplatin],Basal/Claudin-low,basal cell line sensitivity; also recorded: preferential activity in basal or claudin-low cell lines,–
CO[C@H]1C[C@@H]2CC[C@@H](C)[C@@](O)(O2)C(=O)C(=O)N2CCCC[C@H]2C(=O)O[C@H]([C@H](C)C[C@@H]2CC[C@@H](OC(=O)C(C)(CO)CO)[C@H](OC)C2)CC(=O)[C@H](C)/C=C(\C)[C@@H](O)[C@@H](OC)C(=O)[C@H](C)C[C@H](C)/C=C/C=C/C=C/1C [Temsirolimus],Luminal,–,–
NS(=O)(=O)c1ccc(Nc2nc(OCC3CCCCC3)c3[nH]cnc3n2)cc1 [NU6102],–,–,Association of 17q12 (ERBB2) amplification with compound response: associated with resistance
CCNCCCNC/C=C\CNCCCNCC [CGC-11047],Basal,–,–
CC(/C=C/C(=O)NO)=C\[C@@H](C)C(=O)c1ccc(N(C)C)cc1 [Trichostatin A],Luminal,preferentially active in luminal class cell lines,Molecular Subtype in which the compound shows Preferential Activity: Luminal (ER+/PR+)
O=C(Nc1cc(Cl)cc2c1[nH]c1cnccc12)c1cccnc1 [PS1145],–,–,Response of the cell line panel as a whole: almost none of the cell lines in the panel responded strongly
CCn1cc(-c2ccnc3[nH]c(-c4cccc(CN(C)C)c4)cc23)c(-c2ccc(NC(=O)N(C)C)cc2)n1 [GSK1070916],Claudin-low,more active against basal and/or claudin-low cell lines,Molecular Subtype in which the compound shows Preferential Activity: Claudin-low; also recorded: Tumors with low or no 20q13 amplification; Association of 20q13 (STK15/AURKA) amplification with compound response: is associated with; also recorded: associated with resistance; Association of 20q13 (STK15/AURKA) amplification with compound response (listed as GSK.AUR1): less effective in tumors that have genomic DNA copy number amplifications at 20q13; Subtype-preferential activity in breast cancer cell lines (in words) (listed as GSK.AUR1): preferentially active against Claudin-low cell lines
COc1cc2ncnc(Nc3cccc(Cl)c3)c2cc1OC [AG1478],ERBB2AMP,–,–
CCN(CC)CCCCNc1ncc2cc(-c3cc(OC)cc(OC)c3)c(NC(=O)NC(C)(C)C)nc2n1 [PD173074],Claudin-low,–,–
COc1ncc(-c2ccc3nccc(-c4ccnnc4)c3c2)cc1NS(=O)(=O)c1ccc(F)cc1F [GSK2126458],Luminal/ERBB2AMP,–,–
C#Cc1cccc(Nc2ncnc3cc(OCCOC)c(OCCOC)cc23)c1 [Erlotinib],Basal,preferentially active in basal class cell lines,Molecular Subtype in which the compound shows Preferential Activity: Basal (ER−/PR−/HER2−Claudin+)
O=C1c2ccccc2-[n+]2ccc3c([nH]c4ccccc43)c21 [Fascaplysin],Luminal,–,–
CC(=O)O[C@@]12CO[C@@H]1C[C@H](O)[C@@]1(C)C(=O)[C@H](O)C3=C(C)[C@@H](OC(=O)[C@H](O)[C@@H](NC(=O)OC(C)(C)C)c4ccccc4)C[C@@](O)([C@@H](OC(=O)c4ccccc4)[C@H]21)C3(C)C [Docetaxel],Basal/Claudin-low,preferential activity in basal or claudin-low cell lines,–
O=C(CCCCCCC(=O)Nc1ccccc1)NO [Vorinostat],Luminal,preferentially active in luminal class cell lines,Molecular Subtype in which the compound shows Preferential Activity: Luminal (ER+/PR+)
O=c1cc(-c2ccccc2)oc2cc(O)c(O)c(O)c12 [baicalein],–,–,Response of the cell line panel as a whole: almost none of the cell lines in the panel responded strongly
COc1cc2ncnc(Nc3ccc(F)c(Cl)c3)c2cc1OCCCN1CCOCC1 [Gefitinib],ERBB2AMP,–,Association of 17q12 (ERBB2) amplification with compound response: associated with sensitivity
Cc1[nH]c2ccccc2c1CCNCc1ccc(/C=C/C(=O)NO)cc1 [LBH589],Luminal,–,–
"O=c1[nH]cc(F)c(=O)[nH]1 [5-FU, Fluorouracil]",–,–,"Association of response with growth rate (doubling time): strong effects of both subtype and growth rate on response; Association of response with growth rate (doubling time) (listed as 5-florouracil): strong significance in the ANCOVA model for both class and doubling time; also recorded: decreases as doubling time increases; Association of response with growth rate (doubling time) (listed as Fluorouracil): active against cell lines with rapid growth rates; also recorded: active against cell lines that grow more quickly; Shift of mean sensitivity between luminal and basal subtypes (ANCOVA model, FIG. 4B): shifts by approximately one log; Molecular Subtype in which the compound shows Preferential Activity: KI67+ tumors; Subtype-preferential activity in breast cancer cell lines (in words) (listed as 5-florouracil): not significant in the subtype test alone; Subtype-preferential activity in breast cancer cell lines (in words) (listed as Fluoruracil): more effective against basal cell lines (both triple negative and claudin-low) than against luminal cell lines"
O=c1[nH]c2ccccc2n1C1CCN(Cc2ccc(-c3nc4cc5[nH]cnc5cc4nc3-c3ccccc3)cc2)CC1 [Sigma AKT1-2 inhibitor],Luminal,Luminal and ERBB2AMP cell lines preferentially respond,–
COc1cc([C@@H]2c3cc4c(cc3[C@@H](O[C@@H]3O[C@@H]5CO[C@@H](C)O[C@H]5[C@H](O)[C@H]3O)[C@H]3COC(=O)[C@H]23)OCO4)cc(OC)c1O [Etoposide],Claudin-low,preferential activity in basal or claudin-low cell lines,–
CS(=O)(=O)CCNCc1ccc(-c2ccc3ncnc(Nc4ccc(OCc5cccc(F)c5)c(Cl)c4)c3c2)o1 [Lapatinib],Luminal/ERBB2AMP,–,–
